Results: patent US8791273B2, “4R,5S-enantiomer of 2-(5-methyl-2-oxo-4-phenyl-pyrrolidin-1-yl)-acetamide with nootropic activity” (JSC Grindeks, priority 2009, dated 2014)
Marks after values point to notes of the source that are not given here.

How the values were obtained:
ICR male mice = test: Passive avoidance test (learning and memory); type: in vivo; settings: for Latent time (retention latency to cross into the dark compartment): intraperitoneally 46 μmol/kg 60 min before the training trial, retention test 24 hours later, cut-off 300 s, mean±S.E.M, n≧10
Description: Passive avoidance test was performed in a shuttle-box apparatus (Ugo Basile, Italy) with two communicating compartments of equal size (20×10×16 cm) and a stainless steel grid floor (bars spaced 0.7 cm apart). The right-hand compartment (shock compartment) was painted black to obtain a dark chamber. The left-hand compartment was painted white and illuminated by a bulb (100 W) installed on the top of plexiglass cover. These compartments were separated by a guillotine door (5×4 cm). On day 1 (training trial), mice were placed in the illuminated compartment and the door between the two compartments was opened 60 s later. When mice entered the dark compartment with all four feet, the door automatically closed and an inescapable electrical foot shock (0.1 mA; 3 s) was delivered through the grid floor. Latency to cross into the dark compartment (training latency) was automatically measured. The retention test was performed 24 hours later (day 2). Mice were placed into the light (safe) compartment, with access to the dark one (within 10 s) for a period of 300 s (cut-off time). The latency to cross into the dark compartment with all four feet was automatically measured (retention latency).
Effects of 2-(4R-phenyl-2-oxopyrrolidin-1-yl)acetamide), racemic 2-(5-methyl-2-oxo-4-phenyl-pyrrolidin-1-yl)-acetamide and 2-(5S-methyl-2-oxo-4R-phenyl-pyrrolidin-1-yl)-acetamide on retention of passive avoidance response (memory) in ICR male mice.
The compounds were administered intraperitoneally at the dose of 46 μmol/kg 60 min before the training trial (day 1). The saline control group was run concurrently with the drug-treated groups. The statistical analysis was performed by Student's t-test. Data represent mean±S.E.M *p<0.05, ^#p<0.05, ^$p<0.05 versus saline control group, 2-(4R-phenyl-2-oxopyrrolidin-1-yl)acetamide-treated group and racemic2-(5-methyl-2-oxo-4-phenyl-pyrrolidin-1-yl)-acetamide-treated group, respectively; n≧10

Structure (SMILES)	Latent time (retention latency to cross into the dark compartment) (ICR male mice)	effect on memory in the passive avoidance task (ICR male mice; dose of 46 μmol/kg, Student's t-test)	melting point [°C]
CC1C(c2ccccc2)CC(=O)N1CC(N)=O (racemic) [2-(5-methyl-2-oxo-4-phenyl-pyrrolidin-1-yl)-acetamide racemic, 2-(5-methyl-2-oxo-4-phenyl-pyrrolidin-1-yl)-acetamide]	74.2 ± 19.9 s	–	–
NC(=O)CN1C[C@@H](c2ccccc2)CC1=O [2-(4R-phenyl-2-oxopyrrolidin-1-yl)acetamide, reference compound]	94.9 ± 27.6 s	–	–
C[C@H]1[C@@H](c2ccccc2)CC(=O)N1CC(N)=O [2-(5S-methyl-2-oxo-4R-phenyl-pyrrolidin-1-yl)-acetamide]	170.6 ± 41.9* ^#$ s	statistically significant effect on memory	169 to 171
